Square brackets hold non-standard residues; d marks the D form. Peptide text beside a SMILES is read from it. * marks the point of attachment. Nle = CCCC[C@H](N)C(=O)O; Cbz = O=C(OCc1ccccc1)*

Experiment [1] deals with CaSki human cervical cancer cells. Kind of experiment: Apoptosis of CaSki cells (Annexin V flow cytometry, caspase 3 Western blot). In kind it is cell-based. How it is done:
For the apoptosis measurement assay, the transformed CaSki human cervical cancer cells were treated with DMSO, or 25 μM, 50 μM or 100 μM cisplatin for 24 hours. After cisplatin treatment, the cells were collected and stained with fluorescein-conjugated annexin V and propidium iodide, using the APO TARGET Annexin-V FITC Apoptosis Kit (BioSource International, Inc., Camarillo, Calif.) according to the manufacturer's instructions. After the staining, the cells were sorted by flow cytometry with a FACScan instrument (Becton-Dickinson), Annexin-V positive stained cells were counted as apoptotic cells. Cells that were propidium iodide positive but annexin V negative were not counted as apoptotic cells.
To determine whether z-Leu-Leu-Nle-CHO induces cell death via apoptosis, CaSki cells were treated with various concentrations of z-Leu-Leu-Nle-CHO for 18 h and then either stained with Annexin-V-FITC as described above, or subject to Western blot analysis using antibody to both the pro-enzyme and active form of caspase-3 (Santa Cruz Biotechnology, Santa Cruz, Calif.) as described above.
Background: Flow cytometry measures light scatter and fluorescence of single cells or particles in a stream.

The subject of experiment [2] is NOXA. Kind of experiment: Western blot of NOXA after proteasome inhibitors in melanoma cells. The class given is cell-based, human. Particulars: RJ002L, C8161, MUM2B, 18 hrs. The text has this: A panel of melanoma cells were used to assess the effect of bortezomib on pro-apoptotic proteins. RJ002L, C8161, MUM2B and SK-MeI-28 melanoma cells, as well as two normal melanocyte cultures (MC-010 and MC-012) were examined. Prior to testing, the RJ002L melanoma cell lines were maintained in RPMI supplemented with 10% FBS. Late passage melanoma cell lines (C8161, MUM2B and SK-Me1028) were utilized as previously described (Welch D et al., 1991, Int J Cancer 47:227-237; Bittner M et al., 2000, Nature 406:536-540). Normal human melanocytes were isolated from neonatal foreskins and cultured as previously described (Qin J et al., 2004, Mol Cancer Ther 3:895-902). Proliferating cells were examined by Western blot analysis before and after 18 hrs of exposure to bortezomib (1 μM). Antibodies were obtained as follows: Bad (SC-8044), Bcl-2 (SC-7382), Bcl-xL (SC-634), Mcl-1 (SC-819), Bak (SC-832) from Santa Cruz Biotechnology (Santa Cruz, Calif.); NOXA (OP180) from Calbiochem; Bid, Bim and PUMA from Cell Signaling (Beverly, Mass.); BAX from Upstate (Charlottesville, Va.); and β-actin from ICN (Irvine, Calif.). For the Western blot analysis, whole cell extracts were prepared as previously described (Denning M et al., 1998, J Biol Chem 273:29995-30002). Briefly, cells were harvested by scraping monolayers and washed with PBS. Cell pellets were resuspended in CHAPS buffers containing a protease inhibitor cocktail. Extracts were vigorously shaken at 4° C. for 15 min followed by centrifugation. Supernatants were collected and protein concentration determined using Bio-Rad reagent. Thirty to 50 microgram protein samples were resolved by SDS-polyacrylamide gel electrophoresis and transferred to polyvinylidene difluoride membrane by electroblotting. Membranes were probed with the various primary antibodies overnight at 4° C., followed by detection using ECL reagents (Amersham Pharmacia Biotech, Piscataway, N.J.) according to manufacturer's instructions.
Two other proteasome inhibitors, lactasytsin and MG-132, were tested for the ability to induce NOXA in melanoma cells and melanocytes. […]

Experiment [3] relates to NOXA. Kind of experiment: NOXA induction in multiple myeloma cell lines (Western blot). Particulars: RPMI8226 and U266; 24 hours; bortezomib 0.01 to 10 μM, MG-132 10 μM, z-Leu-Leu-Nle-CHO 10 μM. The class given is cell-based. The protocol: (§1) Two different multiple myeloma cell lines (RMP18226 and U266) (ATCC, Rockville, Md.) were treated for 24 hours with various concentrations of the proteasome inhibitors bortezomib (0.01 to 10 μM) and MG-132 (10 μM), or the dual inhibitor z-Leu-Leu-Nle-CHO (10 μM). The cells were evaluated for induction of NOXA and an increase in cleaved caspase 3, by Western blot analysis and for cell viability using APO TARGET Annexin V-FITC staining kits (Biosource) as described above. The caspase 3 antibody was purchased from Abcam (Cambridge, Mass.). […] At a concentration of 10 μM, bortezomib induces approximately equal NOXA levels compared to the other proteasome inhibitor tested (MG-132) and the dual inhibitor z-Leu-Leu-Nle-CHO. The induction of NOXA coincided with the appearance of cleaved caspase 3, which is involved in the final stage of cell death. […] FIG. 12 is graph showing representative results from bortezomib treatment. The induction of apoptosis is concentration-dependent (FIG. 12); with doses as low as 0.01 μM bortezomib trigger significant apoptosis (p<0.05).

A further experiment has as its system RPMI8226 myeloma cells. Briefly: Apoptosis of myeloma cell line RPMI8226 (Annexin V-FITC). The class given is cell-based. Particulars: for apoptotic response: after 18 hrs. How it is done: as §1, with “The” for “Two different multiple myeloma cell lines (RMP18226 and U266) (ATCC, Rockville, Md.) were treated for 24 hours with various concentrations of the proteasome inhibitors bortezomib (0.01 to 10 μM) and MG-132 (10 μM), or the dual inhibitor z-Leu-Leu-Nle-CHO (10 μM). The”

“5′-AAGTGTCTGAGGCCAGCAAGA-3′ [Notch-1 siRNA]”: the “effect on cisplatin-induced apoptosis” value in experiment [1] (cisplatin 25, 50 or 100 μM for 24 hours) is given as “significantly enhances cisplatin-induced apoptosis”.
Regarding `CC(C)C[C@@H](C=O)NC(=O)[C@H](CC(C)C)NC(=O)[C@H](CC(C)C)NC(=O)OCc1ccccc1` [MG-132, benzoxycarbonyl-Leucyl-Leucyl-Leucyl-aldehyde] (Cbz-Leu-Leu-Leu-aldehyde), the NOXA induction entry in the experiment on NOXA [2] (1 μM or 10 μM) is on record as “induced high NOXA levels”; in the experiment on NOXA [3], “found to induce NOXA”. Also, the apoptotic response result in the experiment with RPMI8226 myeloma cells was “triggered significant apoptotic response after 18 hrs”.
On to `CC(C)C[C@H](NC(=O)[C@H](Cc1ccccc1)NC(=O)c1cnccn1)B(O)O` [bortezomib, N-(2-pyrazine)carbonyl-L-phenylalanine-L-leucine boronic acid], for which the “induction of BH3-only proteins” value in the experiment with NOXA [2] (SK-MeI-28, 1 μM) is listed as “only NOXA was consistently induced in all four melanoma cells”. Also, the NOXA induction result in the experiment on NOXA [3] was “induces NOXA in a concentration dependent manner”. Further, in the experiment with RPMI8226 myeloma cells, the “lowest dose triggering significant apoptosis (p<0.05)” value amounted to 0.01 µM and the apoptotic response result is given as “triggered significant apoptotic response after 18 hrs”.
Turning to `CCCC[C@@H](C=O)NC(=O)[C@H](CC(C)C)NC(=O)[C@H](CC(C)C)NC(=O)OCc1ccccc1` [z-Leu-Leu-Nle-CHO, N-benzyloxycarbonyl-leucyl-leucyl-norleucinal] (Cbz-Leu-Leu-[Nle]-aldehyde), the NOXA induction result in the experiment on NOXA [3] was “found to induce NOXA”. Moreover, the apoptotic response result in the experiment on RPMI8226 myeloma cells was “triggered significant apoptotic response after 18 hrs”. Also, in experiment [1] (18 h), the “caspase 3 activation” value was “dose-dependent caspase 3 activation” and the “mode of cell death (Annexin V flow cytometry)” value is “primarily apoptotic”.

(Values after US20080220416A1, “Compositions for Inhibiting Cell Growth and Inducing Apoptosis in Cancer Cells and Methods of Use Thereof” (THE BOARD OF TRUSTEES OF THE UNIVERSITY OF ILLINOI, priority 2004, published 2008).)
